For 32 compounds, IC50 results are on record in patent US20250346569A1, “NEW DERIVATIVES FOR TREATING TRPM3 MEDIATED DISORDERS” (Katholieke Universiteit Leuven, priority 2022, published 2025).

A value given as a limit tells only on which side of the number the result lay.

For this experiment, the target named is T1, mouse TRPM3α2 (mTRPM3) ion channel (Mus musculus, UniProt J9SQF3).
T1 construct: expressed in transfected cells; host or cells: flip-in HEK293
T1 sequence (J9SQF3 1-1709 isoform J9SQF3-12): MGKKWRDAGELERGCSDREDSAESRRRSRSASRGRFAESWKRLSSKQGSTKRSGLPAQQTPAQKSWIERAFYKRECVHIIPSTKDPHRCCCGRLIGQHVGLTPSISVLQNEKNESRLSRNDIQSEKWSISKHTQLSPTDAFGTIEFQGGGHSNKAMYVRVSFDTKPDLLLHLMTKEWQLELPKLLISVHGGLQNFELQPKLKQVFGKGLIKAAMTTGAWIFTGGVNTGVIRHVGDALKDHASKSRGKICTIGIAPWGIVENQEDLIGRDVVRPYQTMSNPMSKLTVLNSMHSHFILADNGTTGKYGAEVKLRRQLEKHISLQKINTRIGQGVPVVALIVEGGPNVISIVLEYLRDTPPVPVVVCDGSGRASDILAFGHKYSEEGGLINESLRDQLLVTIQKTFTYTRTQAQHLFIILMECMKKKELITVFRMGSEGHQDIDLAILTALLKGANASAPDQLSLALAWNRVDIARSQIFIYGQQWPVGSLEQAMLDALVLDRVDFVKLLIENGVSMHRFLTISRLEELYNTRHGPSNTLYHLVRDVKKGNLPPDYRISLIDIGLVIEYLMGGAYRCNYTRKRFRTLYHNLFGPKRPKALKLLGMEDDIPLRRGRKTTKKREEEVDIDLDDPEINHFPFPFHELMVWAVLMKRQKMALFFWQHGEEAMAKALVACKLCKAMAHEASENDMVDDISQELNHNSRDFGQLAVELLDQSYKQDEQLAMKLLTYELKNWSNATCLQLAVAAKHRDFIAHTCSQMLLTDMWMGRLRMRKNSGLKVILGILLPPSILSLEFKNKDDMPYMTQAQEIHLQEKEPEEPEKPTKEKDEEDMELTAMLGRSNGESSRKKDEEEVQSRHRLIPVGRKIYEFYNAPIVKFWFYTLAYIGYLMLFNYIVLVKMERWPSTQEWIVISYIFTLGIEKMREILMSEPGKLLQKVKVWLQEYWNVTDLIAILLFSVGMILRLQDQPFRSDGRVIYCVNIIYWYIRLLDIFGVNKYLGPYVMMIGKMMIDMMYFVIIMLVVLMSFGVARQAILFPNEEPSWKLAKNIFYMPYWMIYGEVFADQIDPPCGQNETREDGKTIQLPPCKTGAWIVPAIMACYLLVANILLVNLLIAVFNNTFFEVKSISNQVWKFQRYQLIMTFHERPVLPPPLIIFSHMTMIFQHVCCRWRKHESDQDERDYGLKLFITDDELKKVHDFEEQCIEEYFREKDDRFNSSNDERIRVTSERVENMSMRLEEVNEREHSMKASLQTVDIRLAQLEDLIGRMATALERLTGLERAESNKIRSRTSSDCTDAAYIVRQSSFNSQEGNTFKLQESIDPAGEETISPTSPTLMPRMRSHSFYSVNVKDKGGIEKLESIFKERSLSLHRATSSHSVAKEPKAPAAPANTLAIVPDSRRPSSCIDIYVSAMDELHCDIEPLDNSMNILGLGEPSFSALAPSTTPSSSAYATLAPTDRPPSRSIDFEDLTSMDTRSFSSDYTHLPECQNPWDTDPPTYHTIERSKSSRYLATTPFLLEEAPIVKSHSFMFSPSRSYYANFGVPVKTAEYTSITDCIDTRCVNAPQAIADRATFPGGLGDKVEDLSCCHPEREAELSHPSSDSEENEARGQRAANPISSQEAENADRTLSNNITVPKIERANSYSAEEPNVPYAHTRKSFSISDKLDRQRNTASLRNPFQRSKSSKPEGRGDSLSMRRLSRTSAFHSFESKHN
Nature of the experiment: Monitoring the TRPM3 ion channel driven Ca2+ uptake (Fluo-4 AM assay). In kind it is cell-based. The settings on record: TRPM3 overexpressing flip-in HEK293 cells, channel stimulated with Pregnenolone sulfate (PS) 50 μM. As for the experimental part:
Monitoring the TRPM3 ion channel driven Ca^2+ uptake.
In order to monitor the inhibition of the mouse TRPM3α2 (mTRPM3) ion channel by the compounds of the invention, a cellular system making use of an mTRPM3alpha2 or hTRPM3 overexpressing cell line (flip-in HEK293) was used. The TRPM3 channel was stimulated/opened with Pregnenolone sulfate (PS) (50 μM) which results in Ca^2+ influx.
For mTRPM3, the intracellular Ca^2+ was measured with a Calcium responsive dye, Fluor-4 AM ester (Invitrogen). Cells were cultured until a confluence of 80-90%, washed with Versene (Invitrogen) and detached from the surface by a short incubation with 0.05% Trypsin (Invitrogen). The trypsination process was stopped by the addition of complete cell culture medium (DMEM, glutamax,10% FCS,NEAA,Pen-Strep). Cells were collected and resuspended in Krebs buffer without Calcium at RT.
Prior the cell seeding (±2000 cells/well into a black, 384 well plate (Greiner)) the diluted compound was added in the assay plate, together with the PS dissolved in Krebs buffer containing Calcium. […] Directly after cell addition the plates were read on an Envision fluorescence reader (Perkin Elmer) by an Excitation of 485 nm and emission at 535 nm.
Channel inhibition was calculated compared to a non-PS stimulated control versus a condition stimulated with PS (50 μM) with vehicle. The ability of the compounds of the invention to inhibit this activity was determined as: Percentage inhibition=[1−((RFU determined for sample with test compound present−RFU determined for sample with positive control inhibitor) divided by (RFU determined in the presence of vehicle−RFU determined for sample with positive control inhibitor))]*100.
The activities of the Example compounds tested are depicted in the table below. The activity ranges A, B and C refer to IC50 values in the Fluo-4 AM assay as follows: “A”: IC50<1 μM; “B”: 1 μM≤IC50≤20 μM and “C”: IC50>20 μM
By IC50 is commonly meant the point on the concentration scale where inhibition reaches its midpoint. High values mean weaker potency in that assay, low ones greater potency in that assay. For `Cc1sc2ccc(OCc3cccnc3O)cc2c1C(=O)NC1(CO)CCOCC1` [Cpd 084, N-[4-(hydroxymethyl)oxan-4-yl]-5-[(2-hydroxypyridin-3-yl)methoxy]-2-methyl-1-benzothiophene-3-carboxamide], the IC50 was less than 1000 nM.
In turn, `Cc1ncsc1COc1ccc2sc(C)c(C(=O)NCC3(N(C)C)CCCC3)c2c1` [Cpd 114, N-{[1-(dimethylamino)cyclopentyl]methyl}-2-methyl-5-[(4-methyl-1,3-thiazol-5-yl)methoxy]-1-benzothiophene-3-carboxamide] gave an IC50 of less than 1000 nM.
In the case of `COc1ncccc1COc1ccc2sc(C)c(C(=O)N[C@@H](CO)C(N)=O)c2c1` [Cpd 139, (2S)-3-hydroxy-2-({5-[(2-methoxypyridin-3-yl)methoxy]-2-methyl-1-benzothiophen-3-yl}formamido)propanamide], the IC50 is less than 1000 nM.
The compound `Cc1ncsc1COc1ccc2sc(C)c(C(=O)NCCN3CCOC3=O)c2c1` [Cpd 048, 2-methyl-5-[(4-methyl-1,3-thiazol-5-yl)methoxy]-N-[2-(2-oxo-1,3-oxazolidin-3-yl)ethyl]-1-benzothiophene-3-carboxamide] registered an IC50 of 1000 to 20000 nM.
For the compound `Cc1ncsc1COc1ccc2sc(C)c(C(=O)N[C@H](CO)C(N)=O)c2c1` [Cpd 029, (2R)-3-hydroxy-2-({2-methyl-5-[(4-methyl-1,3-thiazol-5-yl)methoxy]-1-benzothiophen-3-yl}formamido)propanamide], the IC50 is less than 1000 nM.
With `O=C(NCCN1CCOC1=O)c1c(C(F)F)sc2ccc(OCc3ccccc3)cc12` [Cpd 149, 5-(benzyloxy)-2-(difluoromethyl)-N-[2-(2-oxo-1,3-oxazolidin-3-yl)ethyl]-1-benzothiophene-3-carboxamide], the IC50 was more than 20000 nM.
The value for `O=C(O)c1c(C(F)F)sc2ccc(OCc3ccccc3)cc12` [Cpd 150, 5-(benzyloxy)-2-(difluoromethyl)-1-benzothiophene-3-carboxylic acid] was less than 1000 nM; that for `Cc1sc2ccc(OCc3ccccc3)cc2c1C(=O)NC1CCN(C)C1` (centres unmarked) [Cpd 123, 5-(benzyloxy)-2-methyl-N-(1-methylpyrrolidin-3-yl)-1-benzothiophene-3-carboxamide] was less than 1000 nM; that for `COc1ncccc1COc1ccc2sc(C)c(C(=O)NC3(CO)CC3)c2c1` [Cpd 142, N-[1-(hydroxymethyl)cyclopropyl]-5-[(2-methoxypyridin-3-yl)methoxy]-2-methyl-1-benzothiophene-3-carboxamide] was 1000 to 20000 nM.
In turn, `Cc1sc2ccc(OCc3ccccc3F)cc2c1C(=O)NC1(CO)CCOCC1` [Cpd 081, 5-[(2-fluorophenyl)methoxy]-N-[4-(hydroxymethyl)oxan-4-yl]-2-methyl-1-benzothiophene-3-carboxamide] showed an IC50 of less than 1000 nM.
In the case of `COc1ncccc1COc1ccc2sc(C)c(C(=O)NC3(CO)CCOCC3)c2c1` [Cpd 144, N-[4-(hydroxymethyl)oxan-4-yl]-5-[(2-methoxypyridin-3-yl)methoxy]-2-methyl-1-benzothiophene-3-carboxamide], the IC50 lay within 1000 to 20000 nM.
With `Cc1sc2ccc(OCC3CC3)cc2c1C(=O)NC(C)(CO)CO` [Cpd 069, 5-(cyclopropylmethoxy)-N-(1,3-dihydroxy-2-methylpropan-2-yl)-2-methyl-1-benzothiophene-3-carboxamide], the IC50 was less than 1000 nM.
The compound `Cc1sc2ccc(OCC3CCOCC3)cc2c1C(=O)NC(C)(CO)C(N)=O` (single isomer, unassigned) [Cpd 067 - En1, 3-hydroxy-2-methyl-2-({2-methyl-5-[(oxan-4-yl)methoxy]-1-benzothiophen-3-yl}formamido)propanamide] showed an IC50 of more than 20000 nM.
With `Cc1ncc(COc2ccc3sc(C)c(C(=O)NC(C)(CO)C(N)=O)c3c2)s1` (single isomer, unassigned) [Cpd 019 - En1, 3-hydroxy-2-methyl-2-({2-methyl-5-[(2-methyl-1,3-thiazol-5-yl)methoxy]-1-benzothiophen-3-yl}formamido)propanamide], the IC50 is less than 1000 nM.
In turn, `Cc1sc2ccc(OCc3ccccc3)cc2c1C(=O)NCC1CCC(=O)N1` (centres unmarked) [Cpd 102, 5-(benzyloxy)-2-methyl-N-[(5-oxopyrrolidin-2-yl)methyl]-1-benzothiophene-3-carboxamide] returned an IC50 of 1000 to 20000 nM.
Turning to `Cc1sc2ccc(OCc3ccccc3)cc2c1C(=O)NCc1cccc(O)n1` [Cpd 104, 5-(benzyloxy)-N-[(6-hydroxypyridin-2-yl)methyl]-2-methyl-1-benzothiophene-3-carboxamide], the IC50 is more than 20000 nM.
With `Cc1ncc(COc2ccc3sc(C)c(C(=O)NC4(CO)COC4)c3c2)s1` [Cpd 025, N-[3-(hydroxymethyl)oxetan-3-yl]-2-methyl-5-[(2-methyl-1,3-thiazol-5-yl)methoxy]-1-benzothiophene-3-carboxamide], the IC50 was less than 1000 nM.
For the compound `Cc1ncc(COc2ccc3sc(C)c(C(=O)NC4(C(N)=O)CCOCC4)c3c2)s1` [Cpd 021, 4-{2-methyl-5-[(2-methyl-1,3-thiazol-5-yl)methoxy]-1-benzothiophene-3-amido}oxane-4-carboxamide], the IC50 is less than 1000 nM.
As to `Cc1ncc(COc2ccc3sc(C)c(C(=O)NC4(C(N)=O)COC4)c3c2)s1` [Cpd 026, 3-{2-methyl-5-[(2-methyl-1,3-thiazol-5-yl)methoxy]-1-benzothiophene-3-amido}oxetane-3-carboxamide], the IC50 was less than 1000 nM.
`Cc1sc2ccc(OCc3ccccc3)cc2c1C(=O)Nc1ccn(C)n1` [Cpd 091, 5-(benzyloxy)-2-methyl-N-(1-methyl-1H-pyrazol-3-yl)-1-benzothiophene-3-carboxamide]: the IC50 was less than 1000 nM.
`Cc1sc2ccc(OCc3ccccn3)cc2c1C(=O)NC1(CO)COC1` [Cpd 086, N-[3-(hydroxymethyl)oxetan-3-yl]-2-methyl-5-[(pyridin-2-yl)methoxy]-1-benzothiophene-3-carboxamide] showed an IC50 of less than 1000 nM.
Turning to `Cc1sc2ccc(OCC3CC3)cc2c1C(=O)NC(C)(C)C(N)=O` [Cpd 061, 2-{[5-(cyclopropylmethoxy)-2-methyl-1-benzothiophen-3-yl]formamido}-2-methylpropanamide], the IC50 is less than 1000 nM.
Take `Cc1ncsc1COc1ccc2sc(C)c(C(=O)NC3CCNC3=O)c2c1` (centres unmarked) [Cpd 041, 2-methyl-5-[(4-methyl-1,3-thiazol-5-yl)methoxy]-N-(2-oxopyrrolidin-3-yl)-1-benzothiophene-3-carboxamide]: the IC50 was less than 1000 nM.
`Cc1sc2ccc(OCc3ccccc3)cc2c1C(=O)NC(C)(C)C(N)=O` [Cpd 062, 2-{[5-(benzyloxy)-2-methyl-1-benzothiophen-3-yl]formamido}-2-methylpropanamide] had an IC50 of less than 1000 nM.
The value for `Cc1sc2ccc(OCc3ccccc3F)cc2c1C(=O)N[C@@H]1CCN(CCO)C1=O` [Cpd 055, 5-[(2-fluorophenyl)methoxy]-N-[(3R)-1-(2-hydroxyethyl)-2-oxopyrrolidin-3-yl]-2-methyl-1-benzothiophene-3-carboxamide] was 1000 to 20000 nM; that for `Cc1ncc(COc2ccc3sc(C)c(C(=O)N[C@@H](CO)C(N)=O)c3c2)s1` [Cpd 016, (2S)-3-hydroxy-2-({2-methyl-5-[(2-methyl-1,3-thiazol-5-yl)methoxy]-1-benzothiophen-3-yl}formamido)propanamide] was less than 1000 nM; that for `CN1CCC(NC(=O)c2c(C(F)F)sc3ccc(OCc4ccccc4)cc23)C1` (centres unmarked) [Cpd 124, 5-(benzyloxy)-2-(difluoromethyl)-N-(1-methylpyrrolidin-3-yl)-1-benzothiophene-3-carboxamide] was 1000 to 20000 nM.
Compound `Cc1ncsc1COc1ccc2sc(C)c(C(=O)NC3CC(F)(F)C3)c2c1` [Cpd 039, N-(3,3-difluorocyclobutyl)-2-methyl-5-[(4-methyl-1,3-thiazol-5-yl)methoxy]-1-benzothiophene-3-carboxamide] registered an IC50 of less than 1000 nM.
Compound `Cc1ncsc1COc1ccc2sc(C)c(C(=O)NC3(CO)CCOCC3)c2c1` [Cpd 036, N-[4-(hydroxymethyl)oxan-4-yl]-2-methyl-5-[(4-methyl-1,3-thiazol-5-yl)methoxy]-1-benzothiophene-3-carboxamide] came in with an IC50 of less than 1000 nM.
As for `Cc1sc2ccc(OCC3CC3)cc2c1C(=O)N[C@@H](CO)C(N)=O` [Cpd 050, (2S)-2-{[5-(cyclopropylmethoxy)-2-methyl-1-benzothiophen-3-yl]formamido}-3-hydroxypropanamide], the figure is less than 1000 nM.
The value for `Cc1ncsc1COc1ccc2sc(C)c(C(=O)N[C@@H](CO)C(N)=O)c2c1` [Cpd 027, (2S)-3-hydroxy-2-({2-methyl-5-[(4-methyl-1,3-thiazol-5-yl)methoxy]-1-benzothiophen-3-yl}formamido)propanamide] was less than 1000 nM; that for `CN1CCC(NC(=O)c2c(C(F)F)sc3ccc(OCc4ccccc4)cc23)CC1` [Cpd 128, 5-(benzyloxy)-2-(difluoromethyl)-N-(1-methylpiperidin-4-yl)-1-benzothiophene-3-carboxamide] was 1000 to 20000 nM.
